# Values of other authors as cited in patent publication US20060079522A1, “Amino substituted aryloxybenzylpiperidine derivatives” (priority 2004, published 2006).
# Read-outs that look alike come from different tables or passages of the source.
# Assays:
# MCH1 receptor [1] = target: T1, MCH1 receptor (Rattus norvegicus, UniProt P97639); settings: rat social interaction
# T1 construct: SNAP-7941, a selective MCH1 small molecule antagonist, was evaluated in several animal models; host or cells: living rats (endogenous receptor)
# MCH1 receptor [2] = settings: guinea pig maternal-separation vocalization
# MCH1 receptor [3] = target: T1, MCH1 receptor; settings: rat forced-swim
# T1 sequence (P97639 whole entry): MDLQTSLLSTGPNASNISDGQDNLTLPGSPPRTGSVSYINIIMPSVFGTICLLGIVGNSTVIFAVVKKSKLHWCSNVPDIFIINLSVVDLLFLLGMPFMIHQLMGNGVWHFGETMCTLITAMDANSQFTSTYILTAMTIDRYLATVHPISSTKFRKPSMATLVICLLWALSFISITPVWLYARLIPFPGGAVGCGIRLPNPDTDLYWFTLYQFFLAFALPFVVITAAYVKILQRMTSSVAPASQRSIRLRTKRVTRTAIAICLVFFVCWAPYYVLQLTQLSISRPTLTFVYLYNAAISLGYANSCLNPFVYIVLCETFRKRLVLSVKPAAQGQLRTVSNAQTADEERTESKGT
smiles,measurement,setting,value
COCC1=C(C(=O)OC)[C@H](c2ccc(F)c(F)c2)N(C(=O)NCCCN2CCC(c3cccc(NC(C)=O)c3)CC2)C(=O)N1 [SNAP-7941],profile in behavioral model of depression and/or anxiety,MCH1 receptor [1],profile similar to clinically used anti-depressants and anxiolytics
same,profile in behavioral model of depression and/or anxiety,MCH1 receptor [2],profile similar to clinically used anti-depressants and anxiolytics
same,profile in behavioral model of depression and/or anxiety,MCH1 receptor [3],profile similar to clinically used anti-depressants and anxiolytics
